This is an account of results in patent publication US11846639B2, “Ligand discovery for T cell receptors” (priority 2014, dated 2023).

One may read the Kd as the constant that tells how readily two partners part at equilibrium. A higher Kd goes with a looser complex. The term EC50 denotes the concentration at which the effect is half-maximal.

Each structure is given as a SMILES string. Residues, ends and D or L forms follow the SMILES beside them.

Assay [1] addresses 5cc7 TCR. Nature of the assay: Surface plasmon resonance affinity of peptide-I-Ek for 5cc7 TCR. In kind it is binding, murine. As to conditions: SPR, peptide exchanged into soluble I-Ek. From the text: Refolded Murine TCRs for crystallography and affinity measurements. Refolded 2B4, 226, and 5cc7 were created essentially as described. For […] and 5c2 crystal structures, the 5c1 and 5c2 peptides were fused to the N-terminus of 5cc7β via a 10-amino acid GlySer linker. TCRs were purified via size exclusion chromatography and assayed via SDS-PAGE to ensure 1:1 α:β stoichiometry. If there were an excess of TCRβ, ββ homodimer was purified away from αβ heterodimer via ion exchange chromatography on a MonoQ column (GE Healthcare) using a 20 mM Tris pH 8/20 mM Tris pH8+ 500 mM NaCl buffer system. Proteins were then reexchanged into HBS for further use.
Surface plasmon resonance. Affinity measurements for peptides bound to I-Ek for 226, 2B4, and 5cc7 TCRs were determined via surface plasmon resonance on a Biacore T100 (GE Healthcare). 10 μM of peptide of interest was added to biotinylated Clip-I-Ek. 1 U thrombin/100 μg MHC was added and incubated at 37°. After 1 hour, pH was lowered by adding sodium cacodylate pH 6.2 to 30 mM and sample was incubated at 37° overnight. Samples were then neutralized with 40 mM HEPES pH 7.2 and stored at 4° until use. pMHC exchanged with the peptide of interest were bound to a Biacore SA chip (GE Healthcare) at a low surface density (100-200 RU) to ensure no recapture of analyte. I-Ek exchanged with a null peptide (MCC K99E) was used as the reference surface. […]
For orientation: SPR reads the build-up and loss of mass on a sensor chip optically.

Assay [2] concerns 5cc7 T cell blasts. Format: cell-based, mice. As to conditions: 5cc7 T cells; peptide presented by I-Ek; read-out: signaling potency (EC50). How it is done: Selection of library derived I-Ek peptides for further characterization. Peptides were chosen from the deep sequencing data across a wide range of sequence prevalence for further study via SPR, activity, and structural characterization. Peptides were chosen that were recognized by 1, 2, or all 3 I-E^k reactive TCRs. All peptides were tested for activity with both 2B4 and 5cc7 T cell clones regardless of for which TCR they were initially selected. A subset of peptides was chosen to further characterize via SPR. The 2A peptide that was structurally characterized in FIG. 5A was discovered by manual curation of an I-Ek peptide library. 2A is highly homologous to peptides represented in the deep sequencing data and co-clusters with MCC.
Activity assay for I-Ek-selected peptides. Lymphocytes were isolated from 5cc7 or 2B4 TCR transgenic Rag−/− mice. […] CD69 upregulation was measured using an Accuri C6 flow cytometer with an autosampler (BD) by measuring CD69 MFI in the CD4+ gate. Data was then normalized and EC50s measured via Prism. IL-2 release was measured in technical triplicates via anti-IL-2 Elisa (Ready-setgo mouse IL-2 ELISA kit, eBioscience 88-7024), as recommended by the manufacturer. […] Absorbance was measured via SpectraMax Paradigm (Molecular Devices), with EC50 determined via Graphpad Prism.

Turning to `CC(C)C[C@H](NC(=O)[C@H](Cc1ccccc1)NC(=O)[C@H](Cc1ccccc1)NC(=O)[C@H](C)NC(=O)[C@@H](NC(=O)CNC(=O)[C@H](CC(N)=O)NC(=O)[C@H](C)N)C(C)C)C(=O)N[C@H](C(=O)N1CCC[C@H]1C(=O)N[C@@H](Cc1ccccc1)C(=O)N[C@@H](CCCCN)C(=O)O)[C@@H](C)O` [compound 50] (H-ANGVAFFLTPFK-OH; N-terminus and C-terminus assumed), the Kd in assay [1] worked out at 115 µM. Further, the EC50 in assay [2] was 1.5 µM.
